assay: recombinant UMI read abundance after kanamycin selection (control-corrected) (log10(CPM+1)); higher = more efficient recombination; extreme values may be limits of the assay; sequences stand for … in AGTGCAGAGAAAATCGGCCAGTTTTCTCTGCCTGCAGTCCGCATGCCGTGGGACCCCTTGGGTTCTAACCTGTTGCCTAGATTTATGCAGCGGACTGCCTTTCTCCCAAAGTGATAAACCGG…AGGTTGGTTTCACT; site = the 11-nt donor
Summary of the method: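 Each donor and donor-binding-loop pair was tracked by a 12-nt UMI on a plasmid carrying a promoterless kanamycin gene. With a second plasmid supplying a fixed target and T7-inducible IS621 bridge recombinase, the pool was plated in Escherichia coli on IPTG (0.07 mM) plus kanamycin or unselected. Sequencing of recombinant UMIs across the donor–target junction gave counts expressed as log10(CPM+1) after replicate averaging and control-derived scaling.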
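Further: IS621 bridge recombinase in Escherichia coli cells against a fixed T5 target plasmid.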

Sequence	recombinant UMI read abundance (log10)
AATATAACATGGACCGGTTTTCCCGGTAATCCGTATTTGCT (site AATTTAACTAG)	0.0427
ACATCTACATGGACCGGTTTTCCCGGTAATCCGTATTTGCG (site ACATCTACTCT)	0.353
CAATGCTCATGGACCGGTTTTCCCGGTAATCCGTATTTGAA (site AAATGCTCTTT)	0.129
CAATTGCCATGGACCGGTTTTCCCGGTAATCCGTATTTGCT (site CAATTCCCTAG)	0
GCTTGTCCATGGACCGGTTTTCCCGGTAATCCGTATTTGAT (site GCTTGACCTAT)	0.00264
CCAAAACCATGGACCGGTTTTCCCGGTAATCCGTATTTGAG (site CCAAAACCTCT)	0
ACTTGTGCATGGACCGGTTTTCCCGGTAATCCGTATTTGGT (site ACTTGTGCTAC)	1.18
CGGAATCCATGGACCGGTTTTCCCGGTAATCCGTATTTGTT (site CGGAGTCCTAA)	0.00217
ACTTGTGCATGGACCGGTTTTCCCGGTAATCCGTATTTGGT (site ACTGGTGCTAC)	0.211
CGATCATCATGGACCGGTTTTCCCGGTAATCCGTATTTGCT (site CGATCCTCTAC)	0.00344
ATTGACACATGGACCGGTTTTCCCGGTAATCCGTATTTGGT (site ATTGAGACTAC)	0.811
CGTTAGACATGGACCGGTTTTCCCGGTAATCCGTATTTGAC (site CGTTAGACTGT)	1.58
GTTAGAACATGGACCGGTTTTCCCGGTAATCCGTATTTGGC (site GTTGGAACTGC)	0.696
TATTGATCATGGACCGGTTTTCCCGGTAATCCGTATTTGTG (site TATTGATCTCA)	0.805
GGAGATTCATGGACCGGTTTTCCCGGTAATCCGTATTTGTT (site GGAGATTCTAA)	2.52
AAAGTTGCATGGACCGGTTTTCCCGGTAATCCGTATTTGAT (site AAAGTTGCTAT)	2.62
TAGTTGACATGGACCGGTTTTCCCGGTAATCCGTATTTGCT (site TACTTGACTAG)	0.55
CGGGAGTCATGGACCGGTTTTCCCGGTAATCCGTATTTGCC (site CGAGAGTCTGG)	2.48
GGAGTGGCATGGACCGGTTTTCCCGGTAATCCGTATTTGAT (site GGAGTGGCTAT)	1.87

Sequence	recombinant UMI read abundance (log10)
CATAGCGCATGGACCGGTTTTCCCGGTAATCCGTATTTGTC (site CATAGCGCTGA)	2.99
GGGGCACCATGGACCGGTTTTCCCGGTAATCCGTATTTGCG (site GGGGCACCTGG)	0
CTGTAATCATGGACCGGTTTTCCCGGTAATCCGTATTTGTG (site CTGTAATCTCA)	2.52
ACAATGGCATGGACCGGTTTTCCCGGTAATCCGTATTTGAT (site ACAATGGCTAT)	2.3
TCCAATTCATGGACCGGTTTTCCCGGTAATCCGTATTTGCG (site TCCAATTCTTG)	0
TAATTGGCATGGACCGGTTTTCCCGGTAATCCGTATTTGTG (site TAATTGGCTCA)	0.484
TGACACCCATGGACCGGTTTTCCCGGTAATCCGTATTTGAA (site TGACACCCTTT)	0.0711
GAATATTCATGGACCGGTTTTCCCGGTAATCCGTATTTGTT (site GAAGATTCTAA)	0
AGAATGGCATGGACCGGTTTTCCCGGTAATCCGTATTTGCT (site AGAAGGGCTAG)	0.34
GTTAGAACATGGACCGGTTTTCCCGGTAATCCGTATTTGGC (site ATTAGAACTGC)	0
AACCAAACATGGACCGGTTTTCCCGGTAATCCGTATTTGAG (site AACCAAACTCT)	1.48
CCCCACACATGGACCGGTTTTCCCGGTAATCCGTATTTGTA (site CCCCACACTTC)	0.0125
GGTGTTCCATGGACCGGTTTTCCCGGTAATCCGTATTTGGT (site GGTGTTCCTAC)	0.0141
ATACATCCATGGACCGGTTTTCCCGGTAATCCGTATTTGAC (site ACACATCCTGT)	0
CAAGAGCCATGGACCGGTTTTCCCGGTAATCCGTATTTGTG (site CAAGAGCCTCA)	1.28
CTTCACTCATGGACCGGTTTTCCCGGTAATCCGTATTTGTA (site CTTCACTCTTA)	1.73
CTTGGATCATGGACCGGTTTTCCCGGTAATCCGTATTTGCA (site CTTGGATCTTG)	2.59
CGATCATCATGGACCGGTTTTCCCGGTAATCCGTATTTGCT (site AGGTCATCTAG)	0
CCATGAGCATGGACCGGTTTTCCCGGTAATCCGTATTTGAG (site CCATGAGCTCT)	0.662

Sequence	recombinant UMI read abundance (log10)
GTTGCTGCATGGACCGGTTTTCCCGGTAATCCGTATTTGAG (site GTTGCTGCTCT)	0.388
GCCCACACATGGACCGGTTTTCCCGGTAATCCGTATTTGTA (site CCCCACACTTA)	1.37
CGTTTGGCATGGACCGGTTTTCCCGGTAATCCGTATTTGCT (site CGTTTGGCTCG)	0.00605
TAAAGTCCATGGACCGGTTTTCCCGGTAATCCGTATTTGTA (site TAATGTCCTTA)	0.0108
AGCCTAGCATGGACCGGTTTTCCCGGTAATCCGTATTTGTG (site AGCCTAGCTTA)	0.00858
GTTCGAGCATGGACCGGTTTTCCCGGTAATCCGTATTTGAA (site GTTCGAGCTTT)	1.41
CAATGCTCATGGACCGGTTTTCCCGGTAATCCGTATTTGAA (site CAAGGCTCTTT)	0.0098
AGGATGACATGGACCGGTTTTCCCGGTAATCCGTATTTGCA (site AGGATGACTTG)	2.76
ACTATAACATGGACCGGTTTTCCCGGTAATCCGTATTTGAG (site ACTAGAACTCT)	0.395
GGTCCAACATGGACCGGTTTTCCCGGTAATCCGTATTTGTA (site CGTCCAACTTA)	0
CGATCATCATGGACCGGTTTTCCCGGTAATCCGTATTTGCT (site CGTACATCTAG)	1.61
GTAGTCGCATGGACCGGTTTTCCCGGTAATCCGTATTTGTG (site GTAGTCGCTCA)	2.18
CAAGCGCCATGGACCGGTTTTCCCGGTAATCCGTATTTGTG (site CTAGCGCCTCA)	0.0166
CAAGCGCCATGGACCGGTTTTCCCGGTAATCCGTATTTGTG (site CAAGCGTCTCA)	1.85
CGGGAATCATGGACCGGTTTTCCCGGTAATCCGTATTTGAT (site CGGGAAGCTAT)	0.284
ATAGTATCATGGACCGGTTTTCCCGGTAATCCGTATTTGAC (site CTAGTATCTGT)	2.94
CAAATCCCATGGACCGGTTTTCCCGGTAATCCGTATTTGCT (site CAATTCCCTAG)	0
CTCCCTACATGGACCGGTTTTCCCGGTAATCCGTATTTGTG (site CTCCCTACTCT)	0.00616
ACCCTGTCATGGACCGGTTTTCCCGGTAATCCGTATTTGGG (site ACCCTGTCTCC)	0

Source: the supplement of paper PMC11208160
